The NIST ThermoML archive (doi:10.1016/j.fluid.2008.03.002)
± gives the expanded uncertainty stated by the source.

Key:
[1] = xn = mol fraction of the nth substance listed; details: 332.7 K, 101 kPa, Liquid
[2] = 332.7 K; 101 kPa; Liquid

CCOC(C)=O [ethyl acetate] + CC(C)CCO gave a mass density ([1]; x1 = 1) of 851.36 ± 0.28 kg/m3.

CCOC(C)=O [ethyl acetate] gave a mass density [2] of 851.36 ± 0.28 kg/m3.

CC(C)CCO [3-methylbutan-1-ol] gave a mass density [2] of 778.14 ± 0.37 kg/m3.

For CC(C)CCO [3-methylbutan-1-ol] + CCOC(C)=O, the mass density ([1]; x2 = 0) was 778.14 ± 0.37 kg/m3, the mass density ([1]; x2 = 0.0501) was 780.94 ± 0.36 kg/m3 and the mass density ([1]; x2 = 0.1087) was 784.25 ± 0.36 kg/m3. For the same molecule, the mass density ([1]; x2 = 0.1714) was 788.1 ± 0.36 kg/m3, the mass density ([1]; x2 = 0.2296) was 791.81 ± 0.35 kg/m3 and the mass density ([1]; x2 = 0.29) was 795.6 ± 0.35 kg/m3. For the same molecule, the mass density ([1]; x2 = 0.3561) was 799.89 ± 0.34 kg/m3, the mass density ([1]; x2 = 0.4088) was 803.56 ± 0.34 kg/m3 and the mass density ([1]; x2 = 0.4659) was 807.59 ± 0.34 kg/m3. It also gave a mass density ([1]; x2 = 0.5339) of 812.5 ± 0.33 kg/m3, a mass density ([1]; x2 = 0.5891) of 816.6 ± 0.33 kg/m3 and a mass density ([1]; x2 = 0.6597) of 821.96 ± 0.32 kg/m3. For the same molecule, the mass density ([1]; x2 = 0.7088) was 825.91 ± 0.31 kg/m3, the mass density ([1]; x2 = 0.7693) was 830.72 ± 0.31 kg/m3 and the mass density ([1]; x2 = 0.8286) was 835.79 ± 0.3 kg/m3. It also gave a mass density ([1]; x2 = 0.8882) of 840.96 ± 0.3 kg/m3 and a mass density ([1]; x2 = 0.9488) of 846.43 ± 0.29 kg/m3.
